Laboratory results as given in patent publication US20030044413A1, “Methods of limiting apoptosis of cells” (Regents of the University of Minnesota, priority 1998, published 2003).

Columns and labels:
[1] = tested on: hepatocytes, HuH-7, Hep G2 and Saos-2 cells; experiment: FACS analysis of ΔΨm and ROS, summary over all cell types; assay type: cell-based; conditions: coadministration of UDCA with the inducers, range over cell types
Protocol: A ΔΨm and ROS measurement. ΔΨm and ROS production were measured by FACScan (Becton Dickinson) analysis. Freshly isolated rat hepatocytes were cultured for 3 h as described above and then incubated with William's E medium supplemented with either 100 μM DCA, 100 μM UDCA, equal molar amounts of both, or no bile acid (control), for 6 h. Rat hepatocytes were also cultured with either 1% ethanol, 100 μM UDCA, ethanol+UDCA, or no addition (control) for 4 h. HuH-7 cells, Hep G2 cells, and human osteogenic sarcoma Saos-2 cells were incubated with TGF-β1, anti-Fas antibody or okadaic acid, respectively, for 48 h under the same conditions as outlined above. For combination studies, cells were pretreated with UDCA or hyodeoxycholic acid for 60 min prior to addition of DCA, ethanol, TGF-β1, anti-Fas antibody or okadaic acid. Aliquots of 1.0×10^6 cells were incubated for 15 min at 37° C. with 50 nM 3,3′-dihexyloxacarbocyanine iodide [DiOC6(3)], 2 μM dihydroethidium (HE), or 5 μM 2′,7′-dichlorofluorescin diacetate (H2DCFDA; Molecular Probes, Inc. Eugene, Oreg.) and analyzed by cytofluorometry (Cathcart et al., Anal. Biochem., 134, 111-116 (1983); Zamzami et al., J. Exp. Med., 181, 1661-1672 (1 995); Carter et al., J. Leukocyte Biol., 55, 253-258 (1994)).

astrocytes = experiment: Unconjugated bilirubin-induced apoptosis in astrocytes; assay type: cell-based, rat; conditions: coincubation of UCB with UDCA
[2] = Nuclear bile acid concentration in livers of fed rats; assay type: in vivo, rat
Bax = experiment: Western blot, liver of bile acid fed rats: Bax; assay type: in vivo, rat; conditions: DCA feeding
Protocol: Animals and Diets. Male 160-175 g Sprague-Dawley rats (Sprague-Dawley, Indianapolis, Ind.), were maintained on a 12 h light-dark cycle and fed standard laboratory chow ad libitum for 3 days. The animals were then transferred to metabolic cages and fed diets of standard laboratory chow supplemented with either no bile acid or 0.4% (wt/wt) DCA, 0.4% UDCA, or a combination of DCA+UDCA (Bio-Serv, Frenchtown, N.J.). On day 10, the animals were sacrificed by exsanguination under ether anesthesia between 9 a.m. and 11 a.m. The livers were removed, rinsed in normal saline, and flash-frozen in liquid nitrogen until western blot analyses of apoptosis-related proteins were performed. All animals received humane care in compliance with the Guide for the Care and Use of Laboratory Animals, prepared by the National Academy of Sciences (NIH Publication No. 86-23, revised 1985).
Western Blot Analysis. Cytoplasmic proteins were isolated from rat liver tissue as described previously (Trembley et al., Cell Growth & Differ., 7, 903-916 (1996)). […] Cytoplasmic and mitochondrial protein concentrations were determined using the Bio-Rad protein assay (Bio-Rad Laboratories). […]
Densitometry. […] Quantitation of the autoradiograms was performed using the NIH Image 1.4 densitometric analysis program.

Compound	decrease in superoxide anion production [1]	inhibition of increase in other ROS [1]	inhibition of ΔΨm disruption [1]	inhibition of apoptosis (astrocytes)	share of the total nuclear bile acid concentration ([2]; UDCA feeding) [%]	concentration in nuclei relative to cytoplasmic levels ([2]; livers from control and DCA fed rats) [fold]	increase in mitochondrial-associated Bax (Bax) [fold]
C[C@H](CCC(=O)O)[C@H]1CC[C@H]2[C@@H]3[C@@H](O)C[C@@H]4C[C@H](O)CC[C@]4(C)[C@H]3CC[C@]12C [UDCA, ursodeoxycholic acid]	55-93%	39-65%	21-63%	over 50%	91.4	> 20	
C[C@H](CCC(=O)O)[C@H]1CC[C@H]2[C@@H]3CC[C@@H]4C[C@H](O)CC[C@]4(C)[C@H]3C[C@H](O)[C@]12C [DCA, deoxycholic acid]							4.5
